In assay [1] the test system is C. elegans. The assay is described as follows: Chronic effect of amphetamine on pharyngeal pumping (plates, 20 hours). The format is in vivo, Caenorhabditis elegans. The settings on record: 5 mM amphetamine plates.
For assay [2], the system named is C. elegans. The assay is described as follows: Acute amphetamine assay of pharyngeal pumping (90 minutes in M9 buffer). The format is in vivo, Caenorhabditis elegans.
Assay [3] relates to C. elegans. Put plainly: Growth of worms on agar plates containing amphetamine.
Assay [4] relates to C. elegans. Put plainly: Muscimol effect on rate of pharyngeal contractions (plates with food). The format is in vivo, Caenorhabditis elegans. The settings on record: N2 and eg814, plates with 0, 0.1 and 1 mM muscimol, 20 and 45 minutes.

Entries after “also recorded” stand apart in the source; their conditions may differ. Where a name gives a salt, the structure may show the parent alone.

With `C[C@H](N)Cc1ccccc1` [amphetamine, d-amphetamine sulfate], the “rate of pharyngeal contractions” value in assay [1] (N2, first day adults) is reported as “greatly reduced rate of pharyngeal contractions”. Also, in assay [1] (eg814 mutant, first day adults), the “rate of pharyngeal contractions (pumping)” value is recorded as “sustained resistance to the inhibition of pumping”. In addition, the “pharyngeal contractions, acute effect” value is reported as “inhibits pharyngeal contractions of N2 worms in a dose-dependent manner” in assay [2] (N2, 90 minutes in solution of 0, 5 and 10 mM amph); “exhibits resistance to acute amphetamine” in assay [2] (eg814 mutant, 90 minutes in solution of 0, 5 and 10 mM amph). This compound also had a gravid adults in assay [3] (eg814 mutant, 5 mM amph, plated at first larval stage, after 5 days) of about 100%. For the same compound, in assay [3] (eg814 mutant, 5 mM amphetamine), the growth rates entry is recorded as “unaffected growth rates”. Moreover, the growth of worms result in assay [3] (long-term exposure, millimolar levels of amphetamine in agar plates) is “dramatically suppressed the growth of worms”. Further, the animals reaching adulthood entry in assay [3] (wild-type (N2), 5 mM amphetamine plates, after 5 days) is on record as “no wild-type animals are adults”.

For `NCc1cc(=O)[nH]o1` [muscimol], the inhibition of pumping entry in assay [4] was “exhibited similar inhibition of pumping after both 20 and 45 minutes; also recorded: inhibited pumping in both N2 and eg814 worms with a very similar dose response”.

The values above are taken from US20070010444A1, “Novel mediator of neurotransmitter and psychostimulant responses” (The Regents of the University of California, priority 2005, published 2007).
